Among the data in ChEMBL document CHEMBL1154784, “Discovery of potential ZAP-70 kinase inhibitors: pharmacophore design, database screening and docking studies” (Eur J Med Chem, 2009) are IC50 values, retold here.

For this assay, the target named is T1, Tyrosine-protein kinase ZAP-70 (Homo sapiens, UniProt P43403).
T1 sequence (P43403 whole entry): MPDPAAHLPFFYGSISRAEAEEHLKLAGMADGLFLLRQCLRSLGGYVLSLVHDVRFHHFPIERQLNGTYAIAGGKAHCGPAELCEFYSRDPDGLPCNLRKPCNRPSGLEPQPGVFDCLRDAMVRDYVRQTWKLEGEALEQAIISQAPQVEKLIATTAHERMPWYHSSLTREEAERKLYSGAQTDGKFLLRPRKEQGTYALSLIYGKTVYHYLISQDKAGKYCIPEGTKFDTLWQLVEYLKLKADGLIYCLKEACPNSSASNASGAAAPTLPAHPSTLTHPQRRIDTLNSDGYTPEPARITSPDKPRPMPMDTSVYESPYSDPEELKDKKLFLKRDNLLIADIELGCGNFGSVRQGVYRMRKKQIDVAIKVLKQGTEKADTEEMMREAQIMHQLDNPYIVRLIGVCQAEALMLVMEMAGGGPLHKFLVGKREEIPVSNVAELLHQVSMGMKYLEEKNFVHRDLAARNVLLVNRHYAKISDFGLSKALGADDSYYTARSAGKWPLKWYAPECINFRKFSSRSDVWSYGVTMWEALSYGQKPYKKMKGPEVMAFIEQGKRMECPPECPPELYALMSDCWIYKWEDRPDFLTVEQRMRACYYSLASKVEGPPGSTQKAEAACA
Put plainly: Inhibition of human GST-fused ZAP-70 expressed in Sf9 cells.

Molecules are shown by their SMILES.

`Cc1c(CCC(=O)O)c[nH]c1/C=C1\C(=O)Nc2ccccc21` displayed an IC50 of 25 µM.

On to `Cc1[nH]c(/C=C2\C(=O)Nc3ccccc32)c(C)c1CCC(=O)O` [ORANTINIB], for which the IC50 turned out to be 28.4 µM.
